Measured values as given in US9221802B2, “Arylethynyl derivatives” (Hoffmann-La Roche Inc., priority 2012, dated 2015).
Like-named read-outs stand apart in the source and are kept apart here.

What was measured:
human mGlu5a receptor = human mGlu5a receptor (Homo sapiens (Human), UniProt P41594); assay: Intracellular Ca2+ mobilization assay; type: cell-based; conditions: for EC50: HEK-293 cells expressing human mGlu5a; for Emax: maximal response in % of maximal stimulatory effect of saturating L-glutamate, read-out: Efficacy [%]
Protocol: A monoclonal HEK-293 cell line stably transfected with a cDNA encoding for the human mGlu5a receptor was generated; for the work with mGlu5 Positive Allosteric Modulators (PAMs), a cell line with low receptor expression levels and low constitutive receptor activity was selected to allow the differentiation of agonistic versus PAM activity. Cells were cultured according to standard protocols (Freshney, 2000) in Dulbecco's Modified Eagle Medium with high glucose supplemented with 1 mM glutamine, 10% (vol/vol) heat-inactivated bovine calf serum, Penicillin/Streptomycin, 50 μg/ml hygromycin and 15 μg/ml blasticidin (all cell culture reagents and antibiotics from Invitrogen, Basel, Switzerland).
About 24 hrs before an experiment, 5×10^4 cells/well were seeded in poly-D-lysine coated, black/clear-bottomed 96-well plates. The cells were loaded with 2.5 μM Fluo-4AM in loading buffer (1×HBSS, 20 mM HEPES) for 1 hr at 37° C. and washed five times with loading buffer. The cells were transferred into a Functional Drug Screening System 7000 (Hamamatsu, Paris, France), and 11 half logarithmic serial dilutions of test compound at 37° C. were added and the cells were incubated for 10-30 min. with on-line recording of fluorescence. Following this pre-incubation step, the agonist L-glutamate was added to the cells at a concentration corresponding to EC20 (typically around 80 μM) with on-line recording of fluorescence; in order to account for day-to-day variations in the responsiveness of cells, the EC20 of glutamate was determined immediately ahead of each experiment by recording of a full dose-response curve of glutamate. Responses were measured as peak increase in fluorescence minus basal (i.e. fluorescence without addition of L-glutamate), normalized to the maximal stimulatory effect obtained with saturating concentrations of L-glutamate. Graphs were plotted with the % maximal stimulatory using XLfit, a curve fitting program that iteratively plots the data using Levenburg Marquardt algorithm. The single site competition analysis equation used was y=A+((B−A)/(1+((x/C)D))), where y is the % maximal stimulatory effect, A is the minimum y, B is the maximum y, C is the EC50, x is the log 10 of the concentration of the competing compound and D is the slope of the curve (the Hill Coefficient). From these curves the EC50 (concentration at which half maximal stimulation was achieved), the Hill coefficient as well as the maximal response (=Efficacy) in % of the maximal stimulatory effect obtained with saturating concentrations of L-glutamate were calculated.
A depression of the signal observed after addition of the EC20 concentration of L-glutamate was indicative of an inhibitory activity of the test compound.
The Intracellular Ca^2+ mobilization assay as described before was used for determination of EC50 values.

[1] = Glutathione (GSH) addition assay after metabolic activation; type: in vitro ADME, human; set-up: key: Samples for which the mass of a covalent adduct to a reactive metabolite was clearly detected are indicated as FLAG (positive); Compounds for which no adduct was detected are designated NO FLAG (negative); conditions: glutathione adduct detection after metabolic activation
Protocol: The assay conditions for the detection of glutathione conjugates follow the procedure described by C. M. Dieckhaus et al. in Chem. Res. Toxicol., 18, 630-638 (2005). Samples for which the mass of a covalent adduct to a reactive metabolite was clearly detected are indicated as FLAG (positive). Compounds for which no adduct was detected are designated NO FLAG (negative).
The “gold standard” CVB (covalent binding) assay, which detects the formation of covalent adducts by incubation of test compounds with human liver microsomes (HLM) needs to be conducted with 14C-labelled material. This is not appropriate for routine screening purposes. The glutathione assay after metabolic activation (see assay description) is appropriate for routine screening, and compounds that show significant activity in this assay are very likely to show activity in the CVB assay. […] Generally speaking, compounds of the present invention therefore have a clear advantage with respect to drug safety due to their much less pronounced tendency to form reactive metabolites compared to structurally similar compounds of prior art.

[2] = PAM activity in presence of EC20 L-glutamate, read-out: Ec50
[3] = PAM activity, read-out: EC50 (nM) mGlu5 PAM

human mGlu5a receptor, sequence (P41594 other isoform, or with tags, fused parts or gaps): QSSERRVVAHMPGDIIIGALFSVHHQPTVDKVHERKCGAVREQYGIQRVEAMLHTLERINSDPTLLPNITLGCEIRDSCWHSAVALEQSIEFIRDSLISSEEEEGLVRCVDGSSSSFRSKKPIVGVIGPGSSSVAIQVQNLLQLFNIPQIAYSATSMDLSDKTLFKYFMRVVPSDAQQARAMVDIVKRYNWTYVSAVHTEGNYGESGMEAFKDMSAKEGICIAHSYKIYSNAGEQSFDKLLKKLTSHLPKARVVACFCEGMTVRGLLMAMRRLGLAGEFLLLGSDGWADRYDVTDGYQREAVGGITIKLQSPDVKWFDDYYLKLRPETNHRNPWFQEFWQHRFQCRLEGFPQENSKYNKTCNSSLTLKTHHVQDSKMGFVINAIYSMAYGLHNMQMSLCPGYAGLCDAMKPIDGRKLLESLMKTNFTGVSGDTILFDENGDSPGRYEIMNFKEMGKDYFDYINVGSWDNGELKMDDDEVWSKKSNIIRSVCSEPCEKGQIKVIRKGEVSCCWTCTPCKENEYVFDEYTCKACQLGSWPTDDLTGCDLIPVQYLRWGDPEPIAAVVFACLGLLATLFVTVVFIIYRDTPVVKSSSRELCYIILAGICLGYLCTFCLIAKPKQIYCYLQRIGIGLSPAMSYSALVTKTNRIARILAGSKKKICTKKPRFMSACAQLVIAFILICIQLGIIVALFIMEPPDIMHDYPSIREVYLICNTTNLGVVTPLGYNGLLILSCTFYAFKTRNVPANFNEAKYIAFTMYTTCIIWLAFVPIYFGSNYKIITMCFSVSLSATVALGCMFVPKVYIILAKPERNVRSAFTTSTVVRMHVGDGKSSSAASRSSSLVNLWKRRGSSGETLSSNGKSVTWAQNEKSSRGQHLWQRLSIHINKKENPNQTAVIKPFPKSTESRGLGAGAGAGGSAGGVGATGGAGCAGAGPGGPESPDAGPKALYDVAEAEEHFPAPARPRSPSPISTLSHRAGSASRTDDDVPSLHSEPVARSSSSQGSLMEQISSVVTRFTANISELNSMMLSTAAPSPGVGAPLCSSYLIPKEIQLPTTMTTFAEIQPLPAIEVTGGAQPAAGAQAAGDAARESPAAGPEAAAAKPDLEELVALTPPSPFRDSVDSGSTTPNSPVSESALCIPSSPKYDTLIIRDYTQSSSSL

| SMILES | EC50 (human mGlu5a receptor; [2]) [nM] | EC50 (human mGlu5a receptor; [3]) [nM] | Emax (human mGlu5a receptor) [%] | GSH [HLM] [1] |
| --- | --- | --- | --- | --- |
| O=C1OC[C@H]2CCC[C@H]2N1c1ccc(C#Cc2ccccc2)cn1 [Ex. 1, (4aS,7aR)-1-(5-Phenylethynyl-pyridin-2-yl)-hexahydro-cyclopenta[d][1,3]oxazin-2-one] | 22 | 22 | 38 | NO FLAG |
| O=C1OC[C@H]2CCC[C@H]2N1c1ccc(C#Cc2cccc(F)c2)cn1 [Ex. 2, (4aS,7aR)-1-[5-(3-Fluorophenylethynyl)-pyridin-2-yl]-hexahydro-cyclopenta[d][1,3]oxazin-2-one] | 10 | 10 | 43 | NO FLAG |
| O=C1OC[C@H]2CCC[C@H]2N1c1ccc(C#Cc2ccc(F)cc2)cn1 [Ex. 3, (4aS,7aR)-1-[5-(4-Fluorophenylethynyl)-pyridin-2-yl]-hexahydro-cyclopenta[d][1,3]oxazin-2-one] | 10 | 10 | 40 | NO FLAG |
| O=C1OC[C@H]2CCC[C@H]2N1c1ccc(C#Cc2cc(F)ccc2F)cn1 [Ex. 4, (4aS,7aR)-1-[5-(2,5-Difluorophenylethynyl)-pyridin-2-yl]-hexahydro-cyclopenta[d]-[1,3]oxazin-2-one] | 15 | 15 | 35 | NO FLAG |
| CC1(C)COC(=O)N(c2ccc(C#Cc3ccccc3)cn2)C1 [Ref. Ex. 20] | 27 | – | 135 | – |
| CC1(C)CCN(c2ccc(C#Cc3ccccc3)cn2)C(=O)O1 [Ref. Ex. 72] | 10 | – | 86 | FLAG |
| CC1(C)CCN(c2ccc(C#Cc3cccc(F)c3)cn2)C(=O)O1 [Ref. Ex. 76] | 13 | – | 124 | FLAG |
| CC1(C)CCN(c2ccc(C#Cc3ccc(F)cc3)cn2)C(=O)O1 [Ref. Ex. 79] | 22 | – | 85 | FLAG |
| CC1(C)CCN(c2ccc(C#Cc3cc(F)ccc3F)cn2)C(=O)O1 [Ref. Ex. 81] | 12 | – | 95 | FLAG |
| O=C1O[C@H]2CCC[C@H]2CN1c1ccc(C#Cc2ccccc2)cn1 [Ref. Ex. 103] | 27 | – | 123 | FLAG |
